These results are taken from US9561231B2 (AbbVie Inc., priority 2012, dated 2017).

Where two headings read alike, the source gives them in different places. Some results are limits rather than exact numbers.

What is called Ki is a measure of affinity in units of concentration, obtained from inhibition or displacement.

Experiment [1] has as its system breast cancer cell line MX-1. As to the kind of experiment: MX-1 cell line proliferation assay (3-day). The experiment is classed as cell-based. The conditions noted are these: MX-1 cells, Cell Titer Glo, read-out: Cellular proliferation: EC50. The method, then:
The impact of compounds of the Examples on cancer cell proliferation was determined using the breast cancer cell line MX-1 (ATCC) in a 3-day proliferation assay. MX-1 cells were maintained in RPMI supplemented with 10% FBS at 37° C. and an atmosphere of 5% CO2. For compound testing, MX-1 cells were plated in 96-well black bottom plates at a density of 5000 cells/well in 90 μL of culture media and incubated at 37° overnight to allow cell adhesion and spreading. Compound dilution series were prepared in DMSO via a 3-fold serial dilution from 3 mM to 0.1 μM. The DMSO dilution series were then diluted 1:100 in phosphate buffered saline, and 10 μL of the resulted solution were added to the appropriate wells of the MX-1 cell plate. The final compound concentrations in the wells were 3, 1, 0.3, 0.1, 0.03, 0.01, 0.003, 0.001, 0.0003 and 0.0001 μM.
Luminescence readings from the Cell Titer Glo assay were normalized to the DMSO treated cells and analyzed using the GraphPad Prism software with sigmoidal curve fitting to obtain EC50s.

Experiment [2] deals with T1, first (BD1: amino acids K57-E168) bromodomain of BRD4 (Homo sapiens, UniProt O60885).
T1 construct: His-tagged first (BD1: amino acids K57-E168)
As to the kind of experiment: TR-FRET bromodomain binding assay, BRD4 BD1. The conditions noted are these: Ki calculated from IC50, probe Kd and probe concentration, read-out: TR-FRET Binding Ki: BRD4 (BDI_K57-E168). The method, boiled down: (§1)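 Displacement of an Alexa647-labelled BET-inhibitor from His-tagged BD1 (K57-E168) or BD2 ([…]) measured by TR-FRET in pH 6.0 sodium phosphate buffer with NaCl, EDTA, Triton X-100 and DTT.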

Experiment [3] concerns the target T2, second (BD2: amino acids E352-E168) bromodomain of BRD4 (Homo sapiens, UniProt O60885).
T2 construct: protocol
The experiment in a line: TR-FRET bromodomain binding assay, BRD4 BD2. The conditions noted are these: Ki calculated from IC50, probe Kd and probe concentration, read-out: TR-FRET Binding Ki: BRD4 (BDII_E352-M457). The method, boiled down:
as §1

[4] abbreviates: TR-FRET assay protocol (A-G, compound concentration range).
The mark [5] stands for this setting: Homo sapiens, MX1, 72 h incubation.
The mark [6] stands for this setting: TR-FRET assay protocol (D, E or G) per compound.

On to “1-(2-chloro-5-fluorophenyl)-N-[4-(2,4-difluorophenoxy)-3-(4-ethoxy-1-methyl-6-oxo-1,6-dihydropyridin-3-yl)phenyl]methanesulfonamide [Example 350]”, for which, in experiment [1] (72 h incubation), the EC50 was 1 µM.

As for `Cn1nc(-c2ccccc2Oc2ccccc2)ccc1=O` [Example 1, 2-methyl-6-(2-phenoxyphenyl)pyridazin-3(2H)-one], the figures for the Ki in experiment [2] (setting [4]) and in experiment [3] (setting [4]) were 1.87 µM and 2.05 µM, respectively. The EC50 in experiment [1] (setting [5]) was 20 µM.

As to `Cn1nc(-c2ccccc2OCc2ccccc2)ccc1=O` [Example 2, 6-[2-(benzyloxy)phenyl]-2-methylpyridazin-3(2H)-one], the Ki in experiment [2] (setting [4]) was 11.7 µM; in experiment [3] (setting [4]), 2.86 µM. Also, the EC50 in experiment [1] (setting [5]) was 13.5 µM.

As to `Cn1cc(-c2cc(NS(C)(=O)=O)ccc2Oc2ccc(F)cc2F)c(C(F)(F)F)cc1=O` [Example 5, N-{4-(2,4-difluorophenoxy)-3-[1-methyl-6-oxo-4-(trifluoromethyl)-1,6-dihydropyridin-3-yl]phenyl}methanesulfonamide], the Ki is 0.922 µM in experiment [2] (setting [4]) and 0.688 µM in experiment [3] (setting [4]). Moreover, in experiment [1] (setting [5]), the EC50 is > 3 µM.

As to `Cn1nc(-c2cc(N)ccc2Oc2ccccc2)ccc1=O` [Example 10, 6-(5-amino-2-phenoxyphenyl)-2-methylpyridazin-3(2H)-one], the Ki in experiment [2] (setting [4]) is 2.44 µM; in experiment [3] (setting [4]), 1.5 µM. Besides, the EC50 in experiment [1] (setting [5]) was found to be 3.7 µM.

`Cc1ccc(S(=O)(=O)Nc2ccc(Oc3ccccc3)c(-c3ccc(=O)n(C)n3)c2)cc1` [Example 11, 4-methyl-N-[3-(1-methyl-6-oxo-1,6-dihydropyridazin-3-yl)-4-phenoxyphenyl]benzenesulfonamide]: the Ki is 4.04 µM in experiment [2] (setting [4]) and 4.37 µM in experiment [3] (setting [4]). Besides, in experiment [1] (setting [5]), the EC50 came to 9.46 µM.

Take `CC(=O)Nc1ccc(Oc2ccccc2)c(-c2ccc(=O)n(C)n2)c1` [Example 12, N-[3-(1-methyl-6-oxo-1,6-dihydropyridazin-3-yl)-4-phenoxyphenyl]acetamide]: the values for the Ki in experiment [2] (setting [4]) and in experiment [3] (setting [4]) were 0.575 µM and 0.696 µM, respectively. Besides, the EC50 in experiment [1] (setting [5]) stood at 2.66 µM.

Regarding `Cn1nc(-c2cc(C(N)=O)ccc2Oc2ccccc2)ccc1=O` [Example 14, 3-(1-methyl-6-oxo-1,6-dihydropyridazin-3-yl)-4-phenoxybenzamide], the Ki was 2.55 µM in experiment [2] (setting [4]) and 1.22 µM in experiment [3] (setting [4]). Besides, in experiment [1] (setting [5]), the EC50 came to 11.5 µM.

On to `CC(=O)NCc1ccc(Oc2ccccc2)c(-c2ccc(=O)n(C)n2)c1` [Example 16, N-[3-(1-methyl-6-oxo-1,6-dihydropyridazin-3-yl)-4-phenoxybenzyl]acetamide], for which the results for the Ki in experiment [2] (setting [4]) and in experiment [3] (setting [4]) were 1.11 µM and 8.42 µM, respectively. In experiment [1] (setting [5]), the EC50 is 5.9 µM.

`Cn1nc(-c2cc(CNC(=O)C(F)(F)F)ccc2Oc2ccccc2)ccc1=O` [Example 17, 2,2,2-trifluoro-N-[3-(1-methyl-6-oxo-1,6-dihydropyridazin-3-yl)-4-phenoxybenzyl]acetamide]: the Ki is 0.513 µM in experiment [2] (setting [4]) and 4.52 µM in experiment [3] (setting [4]). The EC50 in experiment [1] (setting [5]) came to 2.63 µM.

For `COc1cc(=O)n(C)nc1-c1cc(N)ccc1Oc1ccccc1` [Example 20, 6-(5-amino-2-phenoxyphenyl)-5-methoxy-2-methylpyridazin-3(2H)-one], the Ki is 2.7 µM in experiment [2] (setting [4]) and 0.524 µM in experiment [3] (setting [4]). In addition, the EC50 in experiment [1] (setting [5]) amounted to 7.16 µM.

`COc1cc(=O)n(C)nc1-c1cc(NC(C)=O)ccc1Oc1ccccc1` [Example 21, N-[3-(4-methoxy-1-methyl-6-oxo-1,6-dihydropyridazin-3-yl)-4-phenoxyphenyl]acetamide]: the Ki in experiment [2] (setting [4]) is 0.147 µM; in experiment [3] (setting [4]), 0.103 µM. Further, the EC50 in experiment [1] (setting [5]) is 1.34 µM.

On to `COc1cc(=O)n(C)nc1-c1cc(N(C)S(C)(=O)=O)ccc1Oc1ccccc1` [Example 23, N-[3-(4-methoxy-1-methyl-6-oxo-1,6-dihydropyridazin-3-yl)-4-phenoxyphenyl]-N-methylmethanesulfonamide], for which the Ki in experiment [2] (setting [4]) is 0.48 µM; in experiment [3] (setting [4]) it was 0.214 µM. Also, the EC50 in experiment [1] (setting [5]) is 3.8 µM.

Consider `CCCS(=O)(=O)Nc1ccc(Oc2ccccc2)c(-c2nn(C)c(=O)cc2OC)c1` [Example 24, N-[3-(4-methoxy-1-methyl-6-oxo-1,6-dihydropyridazin-3-yl)-4-phenoxyphenyl]propane-1-sulfonamide], for which the Ki in experiment [2] (setting [4]) was 0.326 µM; in experiment [3] (setting [4]), 0.108 µM. In addition, the EC50 in experiment [1] (setting [5]) worked out at 1.01 µM.

Regarding `COc1cc(=O)n(C)nc1-c1cc(NS(=O)(=O)CC(F)(F)F)ccc1Oc1ccccc1` [Example 25, 2,2,2-trifluoro-N-[3-(4-methoxy-1-methyl-6-oxo-1,6-dihydropyridazin-3-yl)-4-phenoxyphenyl]ethanesulfonamide], the figures for the Ki in experiment [2] (setting [4]) and in experiment [3] (setting [4]) were 0.0974 µM and 0.0125 µM, respectively. Moreover, the EC50 in experiment [1] (setting [5]) amounted to 0.45 µM.

As for `COc1cc(=O)n(C)nc1-c1cc(NS(=O)(=O)C2CCCC2)ccc1Oc1ccccc1` [Example 26, N-[3-(4-methoxy-1-methyl-6-oxo-1,6-dihydropyridazin-3-yl)-4-phenoxyphenyl]cyclopentanesulfonamide], the figures for the Ki in experiment [2] (setting [4]) and in experiment [3] (setting [4]) were 0.569 µM and 0.104 µM, respectively. The EC50 in experiment [1] (setting [5]) was found to be 0.8 µM.

For `COc1cc(=O)n(C)nc1-c1cc(NS(=O)(=O)Cc2ccccc2)ccc1Oc1ccccc1` [Example 27, N-[3-(4-methoxy-1-methyl-6-oxo-1,6-dihydropyridazin-3-yl)-4-phenoxyphenyl]-1-phenylmethanesulfonamide], the figures for the Ki in experiment [2] (setting [4]) and in experiment [3] (setting [4]) were 0.296 µM and 0.0789 µM, respectively. Also, in experiment [1] (setting [5]), the EC50 is 0.72 µM.

Consider `COc1cc(=O)n(C)nc1-c1cc(NS(=O)(=O)CCC(F)(F)F)ccc1Oc1ccccc1` [Example 28, 3,3,3-trifluoro-N-[3-(4-methoxy-1-methyl-6-oxo-1,6-dihydropyridazin-3-yl)-4-phenoxyphenyl]propane-1-sulfonamide], for which the Ki in experiment [2] (setting [4]) was 0.71 µM; in experiment [3] (setting [4]), 0.227 µM. Besides, in experiment [1] (setting [5]), the EC50 came out at 7.62 µM.

Regarding `CCOC(=O)Nc1ccc(Oc2ccccc2)c(-c2nn(C)c(=O)cc2OC)c1` [Example 29, ethyl[3-(4-methoxy-1-methyl-6-oxo-1,6-dihydropyridazin-3-yl)-4-phenoxyphenyl]carbamate], the Ki in experiment [2] (setting [4]) is 1.37 µM; in experiment [3] (setting [4]), 0.95 µM. For the same molecule, the EC50 in experiment [1] (setting [5]) worked out at 4.53 µM.

As for `CCNC(=O)Nc1ccc(Oc2ccccc2)c(-c2nn(C)c(=O)cc2OC)c1` [Example 30, 1-ethyl-3-[3-(4-methoxy-1-methyl-6-oxo-1,6-dihydropyridazin-3-yl)-4-phenoxyphenyl]urea], the Ki was > 2.38 µM in experiment [2] (setting [4]) and 1.33 µM in experiment [3] (setting [4]). For the same molecule, the EC50 in experiment [1] (setting [5]) turned out to be 12.9 µM.

In the case of `COc1cc(=O)n(C)nc1-c1cc(NS(=O)(=O)N(C)C)ccc1Oc1ccccc1` [Example 31, N′-[3-(4-methoxy-1-methyl-6-oxo-1,6-dihydropyridazin-3-yl)-4-phenoxyphenyl]-N,N-dimethylsulfuric diamide], the EC50 in experiment [1] (setting [5]) is 0.42 µM. Besides, the Ki in experiment [3] (setting [4]) is 0.0465 µM.

For the molecule `COc1cc(=O)n(C)nc1-c1ccccc1Oc1ccc(F)cc1` [Example 33, 6-[2-(4-fluorophenoxy)phenyl]-5-methoxy-2-methylpyridazin-3(2H)-one], the Ki in experiment [2] (setting [4]) is 3 µM; in experiment [3] (setting [4]), 2.29 µM. Besides, the EC50 in experiment [1] (setting [5]) is 4.1 µM.

Consider `CCS(=O)(=O)c1ccc(Oc2ccc(F)cc2F)c(-c2cc(=O)n(C)cc2OCC(F)(F)F)c1` [Example 398, 4-[2-(2,4-difluorophenoxy)-5-(ethylsulfonyl)phenyl]-1-methyl-5-(2,2,2-trifluoroethoxy)pyridin-2(1H)-one], for which the EC50 in experiment [1] (72 hours with compound) was 0.45 µM.

Consider `CCOc1cc(=O)n(C)cc1-c1cc(NS(=O)(=O)c2ccc3ccccc3c2)ccc1Oc1ccc(F)cc1F` [Example 418, N-[4-(2,4-difluorophenoxy)-3-(4-ethoxy-1-methyl-6-oxo-1,6-dihydropyridin-3-yl)phenyl]naphthalene-2-sulfonamide], for which the inhibition constant (Ki) in experiment [2] (setting [6]) was 0.362 µM; in experiment [3] (setting [6]) it was 0.165 µM.

Regarding “N-[4-(2,4-difluorophenoxy)-3-(4-ethoxy-1-methyl-6-oxo-1,6-dihydropyridin-3-yl)phenyl]-1-phenylmethanesulfonamide [Example 311]”, the EC50 in experiment [1] (72 h incubation) is 1 µM.

“N-{4-(4-cyanophenoxy)-3-[1-methyl-6-oxo-4-(2,2,2-trifluoroethoxy)-1,6-dihydropyridin-3-yl]phenyl}ethanesulfonamide [Example 374]”: the EC50 in experiment [1] (72 hours with compound) amounted to 0.0761 µM.
